Laboratory results from patent publication US10913727B2, “Modulators of the integrated stress pathway” (Calico Life Sciences LLC, priority 2016, dated 2021).

System: HEK293T cells carrying the ATF4 luciferase reporter
Experiment: ATF4-Luc assay, in vitro model of Vanishing Cell White Matter Disease (VWMD)
Type: cell-based
Details: Homo sapiens, HEK-293T, 1 μg/mL tunicamycin, 7 hours, One Glo luminescence
Outline: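 Compound at 200 nM and tunicamycin at 1 μg/mL were given together for 7 h to HEK293T cells stably transduced with an ATF4 5′-UTR-driven firefly luciferase reporter. Read-out by luminescence, reported as EC50.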

O=C(COc1ccc2c(c1)OC(F)(F)O2)NC12CC(NC(=O)c3ccccn3)(C1)C2 [Compound 400, N-(3-{2-[(2,2-difluoro-2H-1,3-benzodioxol-5-yl)oxy]acetamido}bicyclo[1.1.1]pentan-1-yl)pyridine-2-carboxamide]
EC50: 250 to 1000 nM

O=C(COc1ccc2c(c1)OC(F)(F)O2)NC12CC(NC(=O)c3cc(CO)ccn3)(C1)C2 [Compound 401, N-(3-{2-[(2,2-difluoro-2H-1,3-benzodioxol-5-yl)oxy]acetamido}bicyclo[1.1.1]pentan-1-yl)-4-(hydroxymethyl)pyridine-2-carboxamide]
EC50: 250 to 1000 nM

O=C(COc1ccc(Cl)c(F)c1)NC12CC(NC(=O)c3ccc[n+]([O-])c3)(C1)C2 [Compound 402, N-{3-[2-(4-chloro-3-fluorophenoxy)acetamido]bicyclo[1.1.1]pentan-1-yl}-1-oxo-1λ^5-pyridine-3-carboxamide]
EC50: > 2000 nM

O=C(COc1ccc(Cl)c(F)c1)NC12CC(NC(=O)c3cccc[n+]3[O-])(C1)C2 [Compound 403, N-{3-[2-(4-chloro-3-fluorophenoxy)acetamido]bicyclo[1.1.1]pentan-1-yl}-1-oxo-1λ^5-pyridine-2-carboxamide]
EC50: > 2000 nM

O=C(COc1ccc(Cl)c(F)c1)NC12CC(Nc3nnc(-c4ccccc4)o3)(C1)C2 [Compound 404, 2-(4-chloro-3-fluorophenoxy)-N-{3-[(5-phenyl-1,3,4-oxadiazol-2-yl)amino]bicyclo[1.1.1]pentan-1-yl}acetamide]
EC50: > 2000 nM

CCn1ccc(C(=O)NC23CC(NC(=O)COc4ccc(Cl)c(F)c4)(C2)C3)cc1=O [Compound 405, N-{3-[2-(4-chloro-3-fluorophenoxy)acetamido]bicyclo[1.1.1]pentan-1-yl}-1-ethyl-2-oxo-1,2-dihydropyridine-4-carboxamide]
EC50: > 2000 nM

CC(C)c1csc(C(=O)NC23CC(NC(=O)COc4ccc(Cl)c(F)c4)(C2)C3)n1 [Compound 406, N-{3-[2-(4-chloro-3-fluorophenoxy)acetamido]bicyclo[1.1.1]pentan-1-yl}-4-(propan-2-yl)-1,3-thiazole-2-carboxamide]
EC50: 50 to 250 nM

O=C(COc1ccc(Cl)c(F)c1)NC12CCC(NC(=O)c3ccc4oc(=O)ccc4c3)(CC1)[C@@H](O)C2 [Compound 407, N-{(2S)-4-[2-(4-chloro-3-fluorophenoxy)acetamido]-2-hydroxybicyclo[2.2.2]octan-1-yl}-2-oxo-2H-1-benzopyran-6-carboxamide]
EC50: 1000 to 2000 nM

O=C(COc1ccc(Cl)c(F)c1)NC12CCC(NC(=O)c3cc(C4CCCCC4)no3)(CC1)CC2O (stereo not shown) [Compound 408, N-{4-[2-(4-chloro-3-fluorophenoxy)acetamido]-3-hydroxybicyclo[2.2.2]octan-1-yl}-3-cyclohexyl-1,2-oxazole-5-carboxamide]
EC50: > 2000 nM

O=C(COc1ccc(Cl)c(F)c1)NC12CCC(NC(=O)c3cc(-c4c(F)cccc4F)no3)(CC1)CC2O (stereo not shown) [Compound 409, N-{4-[2-(4-chloro-3-fluorophenoxy)acetamido]-3-hydroxybicyclo[2.2.2]octan-1-yl}-3-(2,6-difluorophenyl)-1,2-oxazole-5-carboxamide]
EC50: 50 to 250 nM

O=C(COc1ccc(Cl)c(F)c1)NC12CCC(NC(=O)c3cc(Cc4ccc(Cl)cc4)no3)(CC1)CC2O (stereo not shown) [Compound 410, N-{4-[2-(4-chloro-3-fluorophenoxy)acetamido]-3-hydroxybicyclo[2.2.2]octan-1-yl}-3-[(4-chlorophenyl)methyl]-1,2-oxazole-5-carboxamide]
EC50: 50 to 250 nM

O=C(COc1ccc(Cl)c(F)c1)NC12CCC(NC(=O)c3cc(O)no3)(CC1)CC2O (stereo not shown) [Compound 411, N-{4-[2-(4-chloro-3-fluorophenoxy)acetamido]-3-hydroxybicyclo[2.2.2]octan-1-yl}-3-hydroxy-1,2-oxazole-5-carboxamide]
EC50: > 2000 nM

Cn1cnc2noc(C(=O)NC34CCC(NC(=O)COc5ccc(Cl)c(F)c5)(CC3)C(O)C4)c21 (stereo not shown) [Compound 412, N-{4-[2-(4-chloro-3-fluorophenoxy)acetamido]-3-hydroxybicyclo[2.2.2]octan-1-yl}-4-methyl-4H-imidazo[4,5-c][1,2]oxazole-3-carboxamide]
EC50: > 2000 nM

Cn1nc(C(F)F)cc1C(=O)NC12CCC(NC(=O)COc3ccc(Cl)c(F)c3)(CC1)C[C@@H]2O [Compound 413, N-{(2S)-4-[2-(4-chloro-3-fluorophenoxy)acetamido]-2-hydroxybicyclo[2.2.2]octan-1-yl}-3-(difluoromethyl)-1-methyl-1H-pyrazole-5-carboxamide]
EC50: < 50 nM

O=C(COc1ccc(Cl)c(F)c1)NC12CCC(NC(=O)c3cc(Cl)no3)(CC1)CC2O (stereo not shown) [Compound 414, 3-chloro-N-{4-[2-(4-chloro-3-fluorophenoxy)acetamido]-3-hydroxybicyclo[2.2.2]octan-1-yl}-1,2-oxazole-5-carboxamide]
EC50: 50 to 250 nM

O=C(COc1ccc(Cl)c(F)c1)NC12CC(Nc3cc(-c4ccc(Cl)cc4)ccn3)(C1)C2 [Compound 415, 2-(4-chloro-3-fluorophenoxy)-N-(3-{[4-(4-chlorophenyl)pyridin-2-yl]amino}bicyclo[1.1.1]pentan-1-yl)acetamide]
EC50: > 2000 nM

O=C(COc1ccc(Cl)c(F)c1)NC12CC(Nc3cnn(CC(F)(F)F)c(=O)c3Cl)(C1)C2 [Compound 416, 2-(4-chloro-3-fluorophenoxy)-N-(3-{[5-chloro-6-oxo-1-(2,2,2-trifluoroethyl)-1,6-dihydropyridazin-4-yl]amino}bicyclo[1.1.1]pentan-1-yl)acetamide]
EC50: > 2000 nM

O=C(COc1ccc(Cl)c(F)c1)NC12CC(Nc3c(Cl)cnn(CC(F)(F)F)c3=O)(C1)C2 [Compound 417, 2-(4-chloro-3-fluorophenoxy)-N-(3-{[5-chloro-3-oxo-2-(2,2,2-trifluoroethyl)-2,3-dihydropyridazin-4-yl]amino}bicyclo[1.1.1]pentan-1-yl)acetamide]
EC50: 250 to 1000 nM

O=C(COc1ccc2c(c1)OC(F)(F)O2)NC12CC(NC(=O)c3ccncc3)(C1)C2 [Compound 418, N-(3-{2-[(2,2-difluoro-2H-1,3-benzodioxol-5-yl)oxy]acetamido}bicyclo[1.1.1]pentan-1-yl)pyridine-4-carboxamide]
EC50: > 2000 nM

O=C(COc1ccc(Cl)c(F)c1)NC12CC(NC(=O)c3cccc(CO)c3)(C1)C2 [Compound 419, N-{3-[2-(4-chloro-3-fluorophenoxy)acetamido]bicyclo[1.1.1]pentan-1-yl}-3-(hydroxymethyl)benzamide]
EC50: 250 to 1000 nM

CN(CC1CCC1)c1cnc(C(=O)NC23CC(NC(=O)COc4ccc(Cl)c(F)c4)(C2)C3)cn1 [Compound 420, N-{3-[2-(4-chloro-3-fluorophenoxy)acetamido]bicyclo[1.1.1]pentan-1-yl}-5-[(cyclobutylmethyl)(methyl)amino]pyrazine-2-carboxamide]
EC50: > 2000 nM

O=C(COc1ccc(Cl)c(F)c1)NC12CC(Nc3nnc(-c4ccc(Cl)cc4)o3)(C1)C2 [Compound 421, 2-(4-chloro-3-fluorophenoxy)-N-(3-{[5-(4-chlorophenyl)-1,3,4-oxadiazol-2-yl]amino}bicyclo[1.1.1]pentan-1-yl)acetamide]
EC50: 250 to 1000 nM

Cc1cc2c(NC34CC(NC(=O)COc5ccc6c(c5)OC(F)(F)O6)(C3)C4)nccn2n1 [Compound 422, 2-[(2,2-difluoro-2H-1,3-benzodioxol-5-yl)oxy]-N-{3-[(2-methylpyrazolo[1,5-a]pyrazin-4-yl)amino]bicyclo[1.1.1]pentan-1-yl}acetamide]
EC50: 50 to 250 nM

Cc1cc2c(NC34CC(NC(=O)COc5ccc(OC(F)(F)F)cc5)(C3)C4)nccn2n1 [Compound 423, N-{3-[(2-methylpyrazolo[1,5-a]pyrazin-4-yl)amino]bicyclo[1.1.1]pentan-1-yl}-2-[4-(trifluoromethoxy)phenoxy]acetamide]
EC50: 250 to 1000 nM

Cc1cc2c(NC34CC(NC(=O)COc5cccc(OC(F)(F)F)c5)(C3)C4)nccn2n1 [Compound 424, N-{3-[(2-methylpyrazolo[1,5-a]pyrazin-4-yl)amino]bicyclo[1.1.1]pentan-1-yl}-2-[3-(trifluoromethoxy)phenoxy]acetamide]
EC50: 1000 to 2000 nM

O=C(COc1ccc(Cl)c(F)c1)NC12CC(NC(=O)c3ncc(C(F)F)s3)(C1)C2 [Compound 425, N-{3-[2-(4-chloro-3-fluorophenoxy)acetamido]bicyclo[1.1.1]pentan-1-yl}-5-(difluoromethyl)-1,3-thiazole-2-carboxamide]
EC50: 250 to 1000 nM

Cc1nn(C)c2c(NC34CC(NC(=O)COc5ccc(Cl)c(F)c5)(C3)C4)ncnc12 [Compound 426, 2-(4-chloro-3-fluorophenoxy)-N-{3-[(1,3-dimethyl-1H-pyrazolo[4,3-d]pyrimidin-7-yl)amino]bicyclo[1.1.1]pentan-1-yl}acetamide]
EC50: > 2000 nM

O=C(COc1ccc(Cl)c(F)c1)NC12CC(Nc3ccnc(-c4ccc(Cl)cc4)n3)(C1)C2 [Compound 427, 2-(4-chloro-3-fluorophenoxy)-N-(3-{[2-(4-chlorophenyl)pyrimidin-4-yl]amino}bicyclo[1.1.1]pentan-1-yl)acetamide]
EC50: 250 to 1000 nM

O=C(COc1ccc(Cl)c(F)c1)NC12CC(Nc3nc(Cl)cc4nccn34)(C1)C2 [Compound 428, 2-(4-chloro-3-fluorophenoxy)-N-{3-[(7-chloroimidazo[1,2-c]pyrimidin-5-yl)amino]bicyclo[1.1.1]pentan-1-yl}acetamide]
EC50: 250 to 1000 nM

Cc1nn(C)cc1-c1ccnc(NC23CC(NC(=O)COc4ccc(Cl)c(F)c4)(C2)C3)n1 [Compound 429, 2-(4-chloro-3-fluorophenoxy)-N-(3-{[4-(1,3-dimethyl-1H-pyrazol-4-yl)pyrimidin-2-yl]amino}bicyclo[1.1.1]pentan-1-yl)acetamide]
EC50: > 2000 nM

CC(C)(O)/C=C/c1ccnc(C(=O)NC23CC(NC(=O)COc4ccc(Cl)c(F)c4)(C2)C3)c1 [Compound 430, N-{3-[2-(4-chloro-3-fluorophenoxy)acetamido]bicyclo[1.1.1]pentan-1-yl}-4-[(1E)-3-hydroxy-3-methylbut-1-en-1-yl]pyridine-2-carboxamide]
EC50: > 2000 nM
